T1: SmBiT::UL50-HA (human cytomegalovirus (HCMV), UniProt P16791 1-397)
T1 construct: also called pUL50; HCMV core NEC groove protein; source: 293T cells, transiently transfected (PEI), in live cells
T1 sequence: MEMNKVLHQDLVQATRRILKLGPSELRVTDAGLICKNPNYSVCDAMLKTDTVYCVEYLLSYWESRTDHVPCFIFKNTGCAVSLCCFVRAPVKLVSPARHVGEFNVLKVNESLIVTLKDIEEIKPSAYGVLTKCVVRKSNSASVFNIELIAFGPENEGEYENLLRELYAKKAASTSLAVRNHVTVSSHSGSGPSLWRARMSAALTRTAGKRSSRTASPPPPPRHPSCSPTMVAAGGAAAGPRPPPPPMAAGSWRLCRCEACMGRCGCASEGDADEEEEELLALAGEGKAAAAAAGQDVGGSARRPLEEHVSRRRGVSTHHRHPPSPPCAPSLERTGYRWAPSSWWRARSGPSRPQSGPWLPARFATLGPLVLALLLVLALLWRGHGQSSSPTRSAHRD

B1: LgBiT::UL53(1–87)-Flag (domain or fragment)
chain: MSSVSGVRTPRERRSALRSLLRKRRQRELASKVASTVNGATSANNHGEPPSPADARPRLTLHDLHDIFREHPELELKYLNMMKMAIT
notes: source: 293T cells, transiently transfected (PEI), in live cells

What was measured:
[1] = test system: HFF-UL50, HFFs, MRC-5 and 293T cells; assay: Neutral Red cytotoxicity of Shield-1 on four cell types; details: Shield-1 0.04–10 µM, 4 (293T) or 7 d post-treatment
Description: Analysis of putative cytotoxicity of the synthetic ligand Shield-1 on different cell
types. Four different types of cells (recombinant complementing cells HFF-UL50, primary HFFs and
and MRC-5 cells, and immortalized 293T) were treated with various concentrations of Shield-1
(0.04–10 µM as shown on the right). At 4 (293T) or 7 d post-treatment, cell viability was assessed by
Neutral Red staining. Data are presented as mean values ± SD over three biological replicates.
Cytotoxic staurosporine (STP, 1 µM) served as a positive control, DMSO-treated cells as a negative
SmBiT::UL50-HA = target: T1, SmBiT::UL50-HA; assay: split reporter (BiFC, NanoBiT); NanoBiT in 293T cells cotransfected with LgBiT and SmBiT constructs; NanoGlo Live Cell Assay, luminescence at 37 °C; background of LgBiT without SmBiT subtracted; some samples with warhead compounds (LDC compounds, ibrutinib and others); details: partners not purified

| Molecule | cytotoxic potential (in words) [1] | NanoBiT signal strength relative to LgBiT::UL53-Flag + SmBiT::UL50-HA (100%) (SmBiT::UL50-HA) [%] |
| --- | --- | --- |
| CC[C@H](C(=O)N1CCCC[C@H]1C(=O)O[C@H](CCc1ccc(OC)c(OC)c1)c1cccc(OCCN2CCOCC2)c1)c1cc(OC)c(OC)c(OC)c1 [Shield-1] | low cytotoxic potential | – |
| B1 | – | 288 |

— PMC10137179, “Assessment of Covalently Binding Warhead Compounds in the Validation of the Cytomegalovirus Nuclear Egress Complex as an Antiviral Target” (Cells, 2023)
